Reference: patent US10695337B2, “Piperidin-4-yl azetidine derivatives as JAK1 inhibitors” (Incyte Corporation, priority 2010, dated 2020)

Target: human JAK1 (a.a. 837-1142)
Assay: In vitro JAK kinase assay (HTRF, phosphorylation of a biotinylated peptide), JAK1
Format: biochemical
Settings: measured at 1 mM ATP; JAK2 IC50 / JAK1 IC50
Procedure: Compounds herein were tested for inhibitory activity of JAK targets according to the following in vitro assay described in Park et al., Analytical Biochemistry 1999, 269, 94-104. The catalytic domains of human JAK1 (a.a. 837-1142), Jak2 (a.a. 828-1132) and Jak3 (a.a. 781-1124) with an N-terminal His tag were expressed using baculovirus in insect cells and purified. The catalytic activity of JAK1, JAK2 or JAK3 was assayed by measuring the phosphorylation of a biotinylated peptide. The phosphorylated peptide was detected by homogenous time resolved fluorescence (HTRF). […] Reactions were carried out at room temperature for 1 hr and then stopped with 20 μL 45 mM EDTA, 300 nM SA-APC, 6 nM Eu-Py20 in assay buffer (Perkin Elmer, Boston, Mass.). Binding to the Europium labeled antibody took place for 40 minutes and HTRF signal was measured on a Fusion plate reader (Perkin Elmer, Boston, Mass.).

Compound | IC50 Ratio JAK2/JAK1
CC1CC(N2CC(CC#N)(n3cc(-c4ncnc5[nH]ccc45)cn3)C2)CCN1Cc1c(F)cccc1Cl (single isomer, unassigned) [Example 244, {1-[1-(2-chloro-6-fluorobenzyl)-2-methylpiperidin-4-yl]-3-[4-(7H-pyrrolo[2,3-d]pyrimidin-4-yl)-1H-pyrazol-1-yl]azetidin-3-yl}acetonitrile] | 1.8
N#CCC1(n2cc(-c3ncnc4[nH]ccc34)cn2)CN(C2CCN(C(=O)c3cc(F)cc(F)c3)CC2)C1 [Example 3, {1-[1-(3,5-difluorobenzoyl)piperidin-4-yl]-3-[4-(7H-pyrrolo[2,3-d]pyrimidin-4-yl)-1H-pyrazol-1-yl]azetidin-3-yl}acetonitrile] | 11.0
COc1ccc(C(=O)N2CCC(N3CC(CC#N)(n4cc(-c5ncnc6[nH]ccc56)cn4)C3)CC2)cc1F [Example 5, {1-[1-(3-fluoro-4-methoxybenzoyl)piperidin-4-yl]-3-[4-(7H-pyrrolo[2,3-d]pyrimidin-4-yl)-1H-pyrazol-1-yl]azetidin-3-yl}acetonitrile] | 12.0
N#CCC1(n2cc(-c3ncnc4[nH]ccc34)cn2)CN(C2CCN(C(=O)C3CCCCC3)CC2)C1 [Example 8, {1-[1-(cyclohexylcarbonyl)piperidin-4-yl]-3-[4-(7H-pyrrolo[2,3-d]pyrimidin-4-yl)-1H-pyrazol-1-yl]azetidin-3-yl}acetonitrile] | 11.0
N#CCC1(n2cc(-c3ncnc4[nH]ccc34)cn2)CN(C2CCN(C(=O)c3ccccc3)CC2)C1 [Example 9, {1-(1-benzoylpiperidin-4-yl)-3-[4-(7H-pyrrolo[2,3-d]pyrimidin-4-yl)-1H-pyrazol-1-yl]azetidin-3-yl}acetonitrile] | 3.2
N#CCC1(n2cc(-c3ncnc4[nH]ccc34)cn2)CN(C2CCN(C(=O)c3ccccc3C#N)CC2)C1 [Example 10, 2-[(4-{3-(cyanomethyl)-3-[4-(7H-pyrrolo[2,3-d]pyrimidin-4-yl)-1H-pyrazol-1-yl]azetidin-1-yl}piperidin-1-yl)carbonyl]benzonitrile] | 4.4
N#CCC1(n2cc(-c3ncnc4[nH]ccc34)cn2)CN(C2CCN(C(=O)c3cccc(C#N)c3)CC2)C1 [Example 11, 3-[(4-{3-(cyanomethyl)-3-[4-(7H-pyrrolo[2,3-d]pyrimidin-4-yl)-1H-pyrazol-1-yl]azetidin-1-yl}piperidin-1-yl)carbonyl]benzonitrile] | 7.2
N#CCC1(n2cc(-c3ncnc4[nH]ccc34)cn2)CN(C2CCN(C(=O)c3ccc(C#N)cc3)CC2)C1 [Example 12, 4-[(4-{3-(cyanomethyl)-3-[4-(7H-pyrrolo[2,3-d]pyrimidin-4-yl)-1H-pyrazol-1-yl]azetidin-1-yl}piperidin-1-yl)carbonyl]benzonitrile] | 5.2
N#CCC1(n2cc(-c3ncnc4[nH]ccc34)cn2)CN(C2CCN(C(=O)c3cccc(Cl)n3)CC2)C1 [Example 13, {1-{1-[(6-chloropyridin-2-yl)carbonyl]piperidin-4-yl}-3-[4-(7H-pyrrolo[2,3-d]pyrimidin-4-yl)-1H-pyrazol-1-yl]azetidin-3-yl}acetonitrile] | 5.3
N#CCC1(n2cc(-c3ncnc4[nH]ccc34)cn2)CN(C2CCN(C(=O)c3cnccn3)CC2)C1 [Example 14, {1-[1-(pyrazin-2-lcarbonyl)piperidin-4-yl]-3-[4-(7H-pyrrolo[2,3-d]pyrimidin-4-yl)-1H-pyrazol-1-yl]azetidin-3-l}acetonitrile] | 3.2
N#CCC1(n2cc(-c3ncnc4[nH]ccc34)cn2)CN(C2CCN(C(=O)c3ccsc3)CC2)C1 [Example 15, {3-[4-(7H-pyrrolo[2,3-d]pyrimidin-4-yl)-1H-pyrazol-1-yl]-1-[1-(3-thienylcarbonyl)piperidin-4-yl]azetidin-3-yl}acetonitrile] | 5.3
